In publication doi:10.1101/2024.03.08.584059, “AllTheBacteria: a community resource empowers biology and discovers novel peptide antibiotics” (bioRxiv, 2026):
Entries after “also recorded” stand apart in the source; their conditions may differ. Ends that are not written are not given here. Peptide text beside a SMILES is read from it.

Legend:
A. baumannii ATCC 19606 [1] = assay: NPN uptake outer membrane permeabilization assay; format: cell-based, Acinetobacter baumannii
Description: (§1) We next tested whether ATB peptides act primarily by disrupting the bacterial membrane, we assessed their ability to depolarize the cytoplasmic membrane and permeabilize the outer membrane of A. baumannii ATCC 19606 at their MICs using DiSC3-5 and NPN uptake assays, respectively. […] Fluorescence data were analysed in terms of both maximal signal over time and time-resolved kinetic profiles.
N-phenyl-1-napthylamine (NPN) uptake assay was used to evaluate the ability of the peptides to permeabilize the bacterial outer membrane. Inocula of A. baumannii ATCC 19606 were grown to an OD at 600 nm of 0.4 mL^−1, centrifuged (9,391 ģ at 4 °C for 10 min), washed and resuspended in 5 mmol L^−1 HEPES buffer (pH 7.4) containing 5 mmol L^−1 glucose. The bacterial solution was added to a white 96-well plate ([…] per well) together with […] of NPN at 0.5 mmol L^−1. Consequently, peptides diluted in water were added to each well, and the fluorescence was measured at lex = 350 nm and lem = 420 nm over time for 45 min. The relative fluorescence was calculated using the untreated control (buffer + bacteria + fluorescent dye) and polymyxin B (positive control) as baselines and the following equation was applied to reflect % of difference between the baselines and the sample: Percentagedifference=100*flurescencesample-flurescenceuntreatedcontrol/flurescenceuntreatedcontrol

[2] = system: human embryonic kidney (HEK293T) cells; conditions: 24 h
Description: The cells were cultured in high-glucose Dulbecco’s modified Eagle’s medium supplemented with 1% penicillin and streptomycin (antibiotics) and 10% fetal bovine serum and grown at 37 °C in a humidified atmosphere containing 5% CO2.
One day prior to the experiment, 100 μL aliquots of human embryonic kidney (HEK293T) cells, at a concentration of 50,000 cells per mL, were seeded into each well of 96-well plates (5,000 cells per well). Following cell attachment, the HEK293T cells were treated with increasing concentrations of peptides (ranging from 8 to 128 μmol L^−1) and incubated for 24 h. After the exposure period, cytotoxicity was assessed using the 3-(4,5-dimethylthiazol-2-yl)-2,5-diphenyltetrazolium bromide (MTT) assay. Specifically, the MTT reagent was prepared at a concentration of 0.5 mg mL^−1 in phenol red-free medium and used to replace the peptide-containing supernatants (100 μL per well). The plates were then incubated for 4 h at 37 °C in a humidified atmosphere with 5% CO2, facilitating the formation of insoluble formazan crystals. These crystals were subsequently dissolved in 0.04 mol L^−1 hydrochloric acid prepared in anhydrous isopropanol. Absorbance was measured at 570 nm using a spectrophotometer to quantify cell viability. All experiments were conducted in triplicate (three biological replicates).
To evaluate the safety profile of the ATB peptides, we measured their cytotoxicity against human embryonic kidney (HEK293T) cells using a 3-(4,5-dimethylthiazol-2-yl)-2,5-diphenyltetrazolium bromide (MTT) viability assay and determined half-maximal cytotoxic concentrations (CC50). […]
index as the ratio CC50 (HEK293T) / MIC against A. baumannii ATCC 19606.

A. baumannii ATCC 19606 [3] = assay: DiSC3-5 cytoplasmic membrane depolarization assay; format: cell-based, Acinetobacter baumannii; conditions: peptides at their MICs; HEPES buffer pH 7.2, 20 mmol L^−1 glucose, 0.1 mol L^−1 KCl; 60 min; responses remained below Triton X-100; in words
Description: as §1
The cytoplasmic membrane depolarization assay was performed using the membrane potential-sensitive dye 3,3’-dipropylthiadicarbocyanine iodide (DiSC3-5). A. baumannii ATCC 19606 in the mid-logarithmic phase were washed and resuspended at 0.05 OD mL^−1 (optical value at 600 nm) in HEPES buffer (pH 7.2) containing 20 mmol L^−1 glucose and 0.1 mol L^−1 KCl. […] Membrane depolarization was then followed by reading changes in the fluorescence (lex = 622 nm, lem = 670 nm) over time for 60 min. The relative fluorescence was calculated using the untreated control (buffer + bacteria + fluorescent dye) and polymyxin B (positive control) as baselines and the following equation was applied to reflect % of difference between the baselines and the sample: Percentagedifference=100*flurescencesample-flurescenceuntreatedcontrol/flurescenceuntreatedcontrol

A. baumannii ATCC 19606 [4] = assay: microbe, parasite or virus in culture; conditions: Fig. 4 heat map; broth microdilution, LB, 10[5] bacterial cells, 0–64 μmol L^−1, 37 °C, one day, OD600; mode of replicates (triplicate)
Description: Figure 4. […] Briefly, 10[5] bacterial cells were incubated with serially diluted peptides (0–64 μmol L^−1) at 37 °C. Bacterial growth was assessed by measuring the optical density at 600 nm in a microplate reader one day post-treatment.

[5] = peptides at their MICs, 5 mmol L^−1 HEPES pH 7.4, 5 mmol L^−1 glucose, 45 min, rank order in words relative to bacterial baseline

| Compound | half-maximal cytotoxic concentration (CC50) [2] [µM] | outer membrane permeabilization (NPN fluorescence response) (A. baumannii ATCC 19606 [1]; [5]) | also measured |
| --- | --- | --- | --- |
| CC[C@H](C)CCCCC(=O)N[C@@H](CCN)C(=O)N[C@H](C(=O)N[C@@H](CCN)C(=O)N[C@H]1CCNC(=O)[C@H]([C@@H](C)O)NC(=O)[C@H](CCN)NC(=O)[C@H](CCN)NC(=O)[C@H](CC(C)C)NC(=O)[C@@H](Cc2ccccc2)NC(=O)[C@H](CCN)NC1=O)[C@@H](C)O [Polymyxin B, reference compound] (HELM PEPTIDE1{[CC[C@H](C)CCCCC(=O)[*:2]].[Dab].T.[Dab].[Dab].[Dab].[dF].L.[Dab].[Dab].T}$PEPTIDE1,PEPTIDE1,5:R3-11:R2$$$V2.0; N-terminus assumed; bridges inferred) |  |  | outer membrane permeabilization (NPN fluorescence response) (A. baumannii ATCC 19606 [1]; pH 7.4): remained at or near baseline |
| MFKTNLSRVSVKRLLIWVVWWLRLKKLKKKAKKFRKK-OH [ATB60] | 9 to 12 | strong outer-membrane permeabilization; also recorded: largest NPN responses | cytoplasmic membrane depolarization signal (DiSC3-5 fluorescence) (A. baumannii ATCC 19606 [3]): larger depolarization signals |
| MIKVSKLVVAKKLNLRKKLKKYLKKPKLGKILLL-OH [ATB12] | 20 to 100 |  |  |
| MIMATKLIKKNKFAKELFSRKYKPRVIKPKKGKGSFKRKKR-OH [ATB99] |  | largest NPN responses |  |
| MKILKKNMHNKILPMVSHKKWMMLIKRLKTLGRIKK-OH [ATB56] | 20 to 100 |  |  |
| MKKLIRNIIYSKLKFLWRWHRPLIIQRRNL-OH [ATB65] | 5 to 6 | strong outer-membrane permeabilization; also recorded: largest NPN responses | cytoplasmic membrane depolarization signal (DiSC3-5 fluorescence) (A. baumannii ATCC 19606 [3]): larger depolarization signals |
| MKKLKIKKLKIKKLKIKKLKIKKLKSGLRSQ-OH [ATB2] |  | only minor NPN increases |  |
| MKLKKLIKFFAFAKGISLLSRRPVRKRTGGLLKKYLAWKYLRRR-OH [ATB6] | 20 to 100 |  |  |
| MLGRKGLRSVWNGRLNVRKRRQNVRLRKNVRRKNVPKPSVWLI-OH [ATB39] | 20 to 100 |  | cytoplasmic membrane depolarization signal (DiSC3-5 fluorescence) (A. baumannii ATCC 19606 [3]): larger depolarization signals |
| MLKGLKKFKWLKKLKRRLMELNELKKFKKLMELRS-OH [ATB13] | 9 to 12 |  |  |
| MLKLLKKLQMHLLKKLQKEKLLLNLQKKTLKRKRFRHA-OH [ATB61] | 20 to 100 | largest NPN responses |  |
| MLKLLSIKLKSKKKILRMTLTKLNKWLKTKKKWLRNLKTM-OH [ATB5] | 9 to 12 | only minor NPN increases | Minimal Inhibitory Concentration, A. baumannii ATCC 19606 (-) (A. baumannii ATCC 19606 [4]): 1 µmol/L |
| MNKIILRVKKMLKNIKLKNNGIRKYNVKMEVKLVYFK-OH [ATB63] |  | largest NPN responses | cytoplasmic membrane depolarization signal (DiSC3-5 fluorescence) (A. baumannii ATCC 19606 [3]): larger depolarization signals |
| MRIKLHLRLAFLRFRKKKSLSRLKPISKIRSK-OH [ATB76] | 9 to 12 | strong outer-membrane permeabilization; also recorded: largest NPN responses |  |
| MRSLKRQLLKHKAVKLSIKKWQFLRKLKLVPKRH-OH [ATB18] | 9 to 12 |  |  |
| MSLKKIAKLLANKKVRKIAWMLISHPKFIKMLKNSIKRR-OH [ATB55] | 5 to 6 |  |  |
| MSLRKKLFVKTMLRVKIKKQSKQRLQKTKRLLQKLKRPWM-OH [ATB3] | 20 to 100 |  |  |
| MTKHAIAAKSLLKKWIISRPLNMKKKSSPFQKIRKMFKRFFK-OH [ATB25] | 5 to 6 |  |  |
| MTKLKMYLKKVRKNANNSTKQWKYGLPVRNAKLWNNFQPKK-OH [ATB51] | 20 to 100 |  |  |
